Key:
[1] = tested on: Rhizopus oryzae; assay: Control of damping-off of rice seedlings, soil drench; format: in vivo; conditions: 500 ml per box, rice (Kusabue)
Source text: Test der Bekämpfung des Umfallens von Reis-Setzlingen (Wurzelbrand der Keimpflanzen)
Präparat einer Test-Verbindung:
(§1) Aktive Verbindung: 50 Gew.-Teile; Träger: 45 Gew.-Teile einer Mischung aus Diatomeenerde und Kaolin (1:5), Emulgator: 5 Gew.Teile Polyoxyethylenalkylphenylether.
(§2) Die aktive Verbindung, der Träger und der Emulgator in den oben angegebenen Mengen wurden pulverisiert und miteinander zu einem benetzbaren Pulver vermischt. Eine vorher festgegegte Menge des benetzbaren Pulvers wurde mit Wasser vermischt.
Sterilisierte Erde wurde mit in Reiskleie kultiviertem Rhizopus oryzae inokuliert. Die Erde wurde in Anzuchtkästen für Sämlinge (60 cm x 40 cm x 3 cm) eingefüllt. Die wie oben angegeben präparierte aktive Verbindung wurde in vorher festgelegter Konzentration in einer Menge von 500 ml pro Kasten gleichmäßig in die Erde hineingegossen. Samen von Reis (Varietät: Kusabue) wurden in einer Menge von 200 g (Trockengewicht) pro Kasten ausgesät und drei Tage in einer Anzucht-Vorrichtung bei 32°C kultiviert. Danach wurden die Anzucht-Kästen in ein Glashaus überführt und in üblicher Weise gehalten. 20 Tage später wurden 200 Setzlinge aus der Mitte jedes Anzuchtkastens herausgezogen, und der Grad der Verletzung wurde nach dem folgenden Maßstab bewertet. Der Bekämpfungs-Index und das Verhältnis der gesunden Setzlinge wurden berechnet.
Grad der Verletzung: 0: n₀ = gesunde Setzlinge; 1: n₁ = Setzlinge, bei denen das Wachstum der Haarwurzeln in geringem Maße schlecht war; 2: n₂ = Setzlinge, bei denen eine keulenartige Verformung teilweise an den Pfahlwurzeln beobachtet wurde; 3: n₃ = Setzlinge, bei denen das Wachstum der Pfahlwurzeln außerordentlich schlecht war und viele keulenartige Verformungen auftraten; 4: n₄ = Setzlinge, die keulenartig geworden waren, mit gehemmtem Wachstum der Pfahlwurzeln und Deckwurzeln.

[2] = tested on: Rosellinia necatrix; assay: Control of root mould (Wurzelschimmel) in apple, cut twigs in infected soil; format: in vivo; conditions: Konzentration des Wirkstoffs 0,1 %; 5 ml per 100 ml soil; apple twigs (Star King), 3 weeks at 25°C; score 0 (kein Befall) to 5
Source text: as §1, §2
Test der Bekämpfung des Wurzelschimmels beim Apfel
In Reiskleie kultivierter Rosellinia necatrix wurde in sterilisierte Erde inokuliert, um eine infizierte Erde herzustellen. Eine wie in Beispiel 5 präparierte aktive Verbindung in vorher festgelegter Konzentration wurde in einer Menge von 5 ml pro 100 ml Erde gleichmäßig in die Erde hineingegossen und ausreichend mit dieser ver mischt. Abgeschnittene Apfelzweige (Varietät: Star King) wurden senkrecht in der Erde eingebettet, so daß die Hälfte jedes Zweiges in der Erde steckte. Die Zweige wurden dann unter Gewächshaus-Bedingungen bei 25°C gehalten. Drei Wochen später wurde der Grad des Befalls der Zweige durch den oben bezeichneten Pilz beurteilt und nach dem Grad der Verletzung anhand der folgenden […] bewertet:
0: Kein Befall; 1: geringfügiger Befall wurde beobachtet; 2: Befall wurde beobachtet auf 3 % bis weniger als 10 % der Oberfläche der Zweige; 3: Befall wurde beobachtet auf 10 % bis weniger als 30 % der Oberfläche der Zweige; 4: Befall wurde beobachtet auf 30 % bis weniger als 50 % der Oberfläche der Zweige; 5: Befall wurde beobachtet auf wenigstens 50 % der Oberfläche der Zweige.

[3] = tested on: "Komatsuna" (einer Varietät chinesischen Kohls); assay: Phytotoxicity to "Komatsuna" in the clubroot control test; format: in vivo, "Komatsuna" (Varietät: Misugi)
Source text: (§3) Test der Bekämpfung von Kohlhernie bei "Komatsuna" (einer Varietät chinesischen Kohls):
(§4) Aktive Verbindung: 1,5 Teile; Isopropylhydrogenphosphat (PAP): 0,5 Teile; Ton-Pulver: 98 Teile.
(§5) Die oben angegebenen Stoffe wurden pulverisiert und vermischt, wodurch ein Stäubemittel erhalten wurde.
(§6) Mit Plasmodiophora brassicae infizierte Erde wurde in unglasierte Töpfe mit einem Durchmesser von 21 cm gefüllt, und ein Stäubemittel einer Verbindung gemäß der vorliegenden Erfindung, das wie oben angegeben hergestellt worden war, wurde in einer vorher festgelegten Konzentration gleichmäßig mit der Erde vermischt.
(§7) Samen von "Komatsuna" (Varietät: Misugi) wurden in einer Menge von 20 Körnern pro Topf eingesät. Die Töpfe wurden 4 Wochen in einem auf 20°C gehaltenen klimatisierten Gewächshaus gehalten. Dann wurden die Pflanzen ausgegraben, und der Krankheitszustand wurde nach dem folgenden Maßstab bewertet. Der Erkrankungs-Index und das Verhältnis der erkrankten Pflanzen wurden berechnet.

[4] = tested on: Plasmodiophora brassicae; assay: Control of clubroot (Kohlhernie) in "Komatsuna" grown in infected soil, dust mixed into soil; format: in vivo; conditions: 4 weeks at 20°C
Source text: as §3
Präparat einer aktiven Verbindung:
as §4, §5, §6, §7
3: L₁ = Zahl der Pflanzen, deren Wurzeln durch das Auftreten der Kohlhernie (Kropfkrankheit) sehr stark vergrößert worden waren; 2: L₂ - Zahl der Pflanzen, bei denen Kohlhernie auftrat, jedoch auf die Pfahlwurzeln beschränkt war; 1: L₃ = Zahl der Pflanzen, bei denen geringsfügiges Auftreten von Kohlhernie beobachtet wurde; 0: L₄ = Zahl der gesunden Pflanzen. [formula]

[5] = Konzentration des Wirkstoffs 0,1 %
[6] = Konzentration des Wirkstoffs 0,15 %

SMILES | Bekämpfungs-Index [1, 5] | Grad der Verletzung [1, 5] | Verhältnis der gesunden Setzlinge [1, 5] | Grad der der Verletzung [2] | Erkrankungs-Index ([4]; Menge des Wirkstoffs 5 kg/ha) | Verhältnis der erkrankten Pflanzen ([4]; Menge des Wirkstoffs 5 kg/ha) | Phytotoxizität ([3]; Menge des Wirkstoffs 5 kg/ha) | also measured
CCOC(NC(=O)c1ccccc1O)C(Cl)(Cl)Cl (centres unmarked) [A-1, reference compound] | 43% | 28,3% | 35,5% | 3 |  |  |  | Phytotoxizität ([3]; Menge des Wirkstoffs 20 kg/ha): keine
O=C(NC(OCCBr)C(Cl)(Cl)Cl)c1ccccc1O (centres unmarked) [B-1, reference compound] | 60% | 19,6% | 55,5% |  |  |  |  | Phytotoxizität ([3]; Menge des Wirkstoffs 20 kg/ha): keine
CCCCNC(=O)n1c(NC(=O)OC)nc2ccccc21 [Benomyl handelsüblich, Methyl-1-(butylcarbamoyl)-2-benzimidazolcarbamat, reference compound] |  |  |  | 1 |  |  |  | 
O=[N+]([O-])c1c(Cl)c(Cl)c(Cl)c(Cl)c1Cl [PCNB handelsüblich, Pentachloronitrobenzol, reference compound] |  |  |  |  |  |  |  | Erkrankungs-Index ([4]; Menge des Wirkstoffs 60 kg/ha): 58,3%; Verhältnis der erkrankten Pflanzen ([4]; Menge des Wirkstoffs 60 kg/ha): 75%; Phytotoxizität ([3]; Menge des Wirkstoffs 60 kg/ha): keine
N#Cc1c(Cl)c(Cl)c(Cl)c(C#N)c1Cl [TPN handelsüblich, Tetrachloroisophthalsäurenitril, reference compound] |  |  |  |  |  |  |  | Bekämpfungs-Index [1, 6]: 85%; Grad der Verletzung [1, 6]: 7,3%; Verhältnis der gesunden Setzlinge [1, 6]: 75,5%
CCOC(NC(=O)c1cc(Cl)ccc1O)C(Cl)(Cl)Cl (centres unmarked) [Verbindung 1, N-(2,2,2-Trichloro-1-ethoxyethyl)-5-chloro-2-hydroxybenzamid] |  |  |  |  | 0% | 0% | keine | 
C=CCOC(NC(=O)c1cc(Cl)ccc1O)C(Cl)(Cl)Cl (centres unmarked) [Verbindung 2, N-(2,2,2-Trichloro-1-allyloxyethyl)-5-chloro-2-hydroxybenzamid] | 95% | 2,7% | 90,5% |  | 0% | 0% | keine | 
O=C(NC(OCC(F)(F)F)C(Cl)(Cl)Cl)c1cc(Cl)ccc1O (centres unmarked) [Verbindung 4, N-[2,2,2-Trichloro-1-(2,2,2-trifluoroethoxy)ethyl]-5-chloro-2-hydroxybenzamid] | 95% | 2,5% | 91,5% |  | 0% | 0% | keine | 
O=C(NC(OCC(F)(F)F)C(Cl)(Cl)Cl)c1cc(Br)ccc1O (centres unmarked) [Verbindung 8] |  |  |  | 0,5 | 1,3% | 7% | keine | 
CC(=O)Oc1ccc(Cl)cc1C(=O)NC(OCC(F)(F)F)C(Cl)(Cl)Cl (centres unmarked) [Verbindung 12] | 94% | 3,0% | 90,5% | 0 | 0% | 0% | keine | 
COC(NC(=O)c1cc(Cl)ccc1O)C(Cl)(Cl)Cl (centres unmarked) [Verbindung 13] | 94% | 3,0% | 85,0% | 0,5 |  |  |  | 
CCOC(NC(=O)c1cc(Cl)ccc1OC(C)=O)C(Cl)(Cl)Cl (centres unmarked) [Verbindung 20, N-(2,2,2-Trichloro-1-ethoxyethyl)-2-acetoxy-5-chlorobenzamid] |  |  |  | 0,3 |  |  |  | 
